Data on 10 compounds can be found in patent US10722492B2, “Andrographolide treats progressive forms of multiple sclerosis” (INNOBIOSCIENCES, LLC, priority 2016, dated 2020).

The test system of one data set is patients with PPMS. Particulars: 95% confidence interval 0.71-1.07; p=0.1753; non-significant delay; cited from earlier work.
A further data set has as its system SPMS and PPMS patients. The conditions noted are these: cited from earlier work.
A further data set relates to SP & PPMS forms. Particulars: summary of prior art; cited from earlier work.
The test system of data set [1] is patients with all clinical forms of MS. Particulars: cited from earlier work.
For another data set, the system named is MS participants. Particulars: cited from earlier work.
In data set [2] the test system is patients with worsening RRMS or SPMS with relapses. Particulars: 24 months, 95% CI 0.17-0.44; p<0.001; cited from earlier work.
Data set [3] deals with patients with RRMS, PRMS and SPMS with relapses. Particulars: 2 years follow-up, p=0.05; cited from earlier work.
Data set [4] deals with subjects with Secondary progressive MS with relapses. The conditions noted are these: vs placebo; cited from earlier work.
The subject of data set [5] is patients with Secondary progressive MS. The conditions noted are these: cited from earlier work.
For data set [6], the system named is MOG-immunized C57BL/6J mice (EAE). The experiment in a line: EAE therapeutic treatment from chronic phase (day 15 post-immunization). The data set is classed as in vivo. The procedure: […] […] As controls MOG-immunized C57BL/6J mice were injected with vehicle (PBS) daily. At day 21 p.i. mice were sacrificed. MOG-immunized mice treated with either PBS (A-C) or AG (B-D) were perfussed and 4% p-formaldehyde fixed. Toraxic spinal cords sections were dissected and analyzed for inflammatory infiltrate by hematoxylin-eosin staining (H&E) and for demyelination with luxol fast blue staining (LFB). Insets show higher magnification (20×).

The test system of a further data set is MOG-immunized mice (EAE). The data set can be described thus: EAE prevention: treatment before MOG immunization, daily clinical score. It counts as in vivo. Particulars: MOG-immunized one week after treatment, FIG. 1B. The procedure: (§1) (A) Lymph node cell suspensions obtained from C57BL/6 and BALB/c mice were co-cultured with increasing concentrations of IB-MS for 72 h. After this time, supernatants were harvested and analyzed for IL-2 release by ELISA assay (circles) and T cell proliferation (squares) was determined by Cell Titer assay. (B) Mice treated with vehicle (solid circles) or andrographolide (empty circles) were MOG-immunized one week later and clinical score determined daily.

The test system of data set [7] is Lymph node cell suspensions obtained from C57BL/6 and BALB/c mice. The data set can be described thus: Lymph node cell co-culture, IL-2 release (ELISA) and T cell proliferation (Cell Titer). Particulars: increasing concentrations, 72 h, FIG. 1A. It counts as cell-based. As for the experimental part:
as §1
A general note: ELISA stands for enzyme-linked immunosorbent assay.

Another data set relates to PPMS patients. Particulars: cited from earlier work.
A further data set deals with EAE model. Particulars: prophylactic administration; cited from earlier work.
The test system of data set [8] is patients with progressive forms of Multiple Sclerosis. The data set can be described thus: Controlled, randomized, double-blinded human clinical trial of andrographolide. It counts as in vivo. As for the experimental part:
We have tested andrographolide in a controlled, randomized, double-blinded human clinical trial of andrographolide 140 mg orally administered twice per day (i.e., 280 mg per day) in patients with progressive forms of Multiple Sclerosis. The principle objective of that study was to determine efficacy, safety and tolerability of andrographolide in retarding the progression of brain atrophy. Secondary end-points included: delay in the disability capacity progression through the Expanded Disability Status Scale (EDSS) and Multiple Sclerosis Funcitonal Composite (MSFC) at 24 months compared to the baseline; delay in cognitive impairment by means of Paced Auditory Serial Addition Test (PASAT), Symbol Digit Modalities Test (SDMT) and depression (Beck) at 24 months compared to the baseline; quality of life Multiple Sclerosis Impact Scale (MSIS 29) and fatigue (Krupp) through parameters reported by the patients at 24 months compared to the baseline; Tolerability of andrographolide measured by Magnetic Resonance (MR) at 24 months compared to baseline; Number and volume of new lesions or larger size in T2 by MR at 24 months compared to the baseline; Number of new hipointense lesions in T1 or (gadolinium captive) by MR at 24 months compared to baseline; Delay in the retinal thinning measured by Optical Coherence Tomography (OCT) and visual field at 24 months compared to the baseline; and Safety of andrographolide at 24 months through the record of adverse effects in symptom diary and programmed interviews. The details of the study are described more completely in U.S. Provisional patent application Ser. No. 62/347,218 (filed 8 Jun. 2016), incorporated here by reference.
The numbers (x axis) on the figure are measurements 6: corresponds to 2 year treatment. There are still many patients that need to complete the 2 year treatment. The data therefore show a lot of variance. […] The 9-HPT is a brief, standardized, quantitative test of upper extremity function. It is the second component of the MSFC to be administered at each visit. Both the dominant and non-dominant hands are tested twice. The patient is seated at a table with a small, shallow container holding nine pegs and a wood or plastic block containing nine empty holes. On a start command when a stopwatch is started, the patient picks up the nine pegs one at a time as quickly as possible, puts them in the nine holes, and, once they are in the holes, removes them again as quickly as possible one at a time, replacing them into the shallow container. The total time to complete the task is recorded. Two consecutive trials with the dominant hand are immediately followed by two consecutive trials with the non-dominant hand.
There are 3 components of the Multiple Sclerosis Functional Composite (MSFC) disease activity index: function of the legs, function of the arms and cognitive function. The corresponding tests are a 25 feet (7.6 m) walk; test of 9 holes and pin and the Paced Auditory Serial Addition test 3 (PASAT3). Multiple attempts will be made of each test in each visit. The MSFC score and the scores of the 3 sub-scales and the change from the basal values will be recorded in each visit
One measure of progressive MS disease severity is the Expanded Disability Status Scale (EDSS). EDSS is a scale to determine the neurological disability in MS and is used to confirm progression of the disease. It consists of a system of two parts. The first part measures eight functional systems (FS). The second part measures disability on a scale of […], zero being no disability and 10 being death due to MS.
The Nine Hole Pin Test (9HPT) is a component of the MS Functional Composite (MSFC) score. 9HPT is a timed test measuring the time (seconds) required to insert each of nine pins into nine holes in a plank. The test is done on each of the right and left arms. The test measures eye-hand coordination and fine muscle control. […]

The next data set deals with microglia. Particulars: cited from earlier work.
In data set [9] the test system is Jurkat cell line (lymphom of T cells). Particulars: through inhibition of NFAT and MAPK-Erk 1/2; cited from earlier work.
The next data set concerns dendritic cells. Particulars: mice model; cited from earlier work.
The conditions of data set [10]: many clinical studies; cited from earlier work.
The next data set has as its system progressive MS patients. The conditions noted are these: cited from earlier work.
The mark [11] stands for this setting: 4 mg/kg daily, day 15 to day 20 post-immunization, FIG. 3.
[12] abbreviates: twelve months of treatment, FIG. 7.

Like-named read-outs stand apart in the source and are kept apart here.

Turning to Glatiramer Acetate, the “time to sustained accumulated disability (hazard ratio)” value in the data set with patients with PPMS is recorded as 0.87. Besides, in the data set with SPMS and PPMS patients (in vivo), the local injection-site reactions entry is given as “up to a half of patients” and the major toxicity result is listed as “No major toxicity”. Further, the “benefit in SPMS and PPMS patients” value with SPMS and PPMS patients (meta-analysis) is on record as “No benefit”. Also, the “slowing down / reduction of disability progression in progressive MS” value (“slowing down / reduction” below) in the data set with SP & PPMS forms is listed as “failed to demonstrate efficacy”.

For the compound `Cn1cnc([N+](=O)[O-])c1Sc1ncnc2nc[nH]c12` [azathioprine, Azathioprine], the “number of patients who had relapses, relative risk reduction [RRR]” value is on record as 20% in data set [1] (first year of treatment, 95% CI=5% to 33%); 18% in data set [1] (three years follow-up, 95% CI=7% to 27%); 23% in [1] (two years, 95% CI=12% to 33%). The “number of patients who progressed, RRR” value in data set [1] (three years' follow-up, 95% CI=7% to 64%, 87 patients) is on record as 42%. Besides, in the data set with SP & PPMS forms, the “slowing down / reduction” value is “do not show a reduction in the progression of disability”.

As for `O=P1(N(CCCl)CCCl)NCCCO1` (stereo not drawn) [cyclophosphamide, Cyclophosphamide], the “slowing down / reduction” value in the data set on SP & PPMS forms is given as “do not show a reduction in the progression of disability”. In addition, the “long-term clinical disability progression (evolution to a next step of EDSS score)” value with MS participants (12, 18, 24 months) is “did not prevent”. Also, the “mean change in disability (effect size)” value is listed as −0.21 in the data set on MS participants (12 months, 95% confidence interval −0.25 to −0.17); −0,19 in the data set with MS participants (18 months, 95% confidence interval −0.24 to −0.14); 0.14 with MS participants (24 months, CI 0.07 to 0.21, favoured the control group).

`O=C1c2c(O)ccc(O)c2C(=O)c2c(NCCNCCO)ccc(NCCNCCO)c21` [mitoxantrone, Mitoxantrone]: the “different clinical measures (difference vs placebo)” value in data set [2] is 0.3. Further, the “proportion of patients with 6-months confirmed progression of disability (Odds Ratios)” value in [3] is listed as 0.3. In addition, the “slowing down / reduction” value in the data set with SP & PPMS forms is reported as “do not show a reduction in the progression of disability”.

Interferon beta-1b [IFNB-1b]: in [4], the “relapse and MRI-related outcomes” value was “significant benefit”; the “time to confirmed progression of disability” value was “no treatment benefit”. Besides, in [5] (p=0.007), the “time to confirmed 1.0 point progression on the Expanded Disability Status Scale (EDSS)” value is on record as “delayed”. For the same compound, the “progression of 2.0 EDSS point, lower” value in [5] (vs placebo) was 27%. In addition, the “slowing down / reduction” value with SP & PPMS forms is given as “failed to demonstrate efficacy”.

Andrographolide: the “effect in EAE” value in data set [6] (4 mg/kg every second day, day 15 to day 30 post-immunization, FIG. 2) is “has a therapeutic effect in EAE”. For the same compound, the EAE clinical score entry with MOG-immunized mice (EAE) is reported as “prevents EAE”. For the same compound, the “T cell activation (IL-2 release, T cell proliferation)” value in [7] was “interferes with T cell activation”.

Turning to Rituximab, the “increase in T2 lesion volume” value with PPMS patients (baseline to week 96, p<0.001) is on record as “less”. In addition, the brain volume change entry in the data set on PPMS patients (baseline to week 96, p=0.62) is on record as “similar”. In the data set on PPMS patients (placebo 38.5%, p=0.14, not significant), the “confirmed disease progression, 96-week rate” value is recorded as 30.2%. In addition, in the data set with PPMS patients (vs placebo), the adverse events entry is “comparable between groups”.

Consider natalizumab, for which, in the data set with SP & PPMS forms, the “slowing down / reduction” value is given as “no effect on the progressive forms”.

Turning to `C=C1CC[C@@H]2[C@](C)(CO)[C@H](O)CC[C@@]2(C)[C@@H]1C/C=C1/C(=O)OC[C@H]1O` [andrographolide, Andrographolide], in [6] (setting [11]), the “demyelination in spinal cord (LFB)” value is listed as “reduced” and the “inflammatory infiltrate in spinal cord (H&E)” value is “reduced”. In addition, the “development of EAE” value with EAE model is listed as “prevents the development Of EAE”. Further, the “efficacy, interim results” value in data set [8] (12 months of treatment) was “statistically-significant efficacy”. Also, in [8] (12 months of treatment vs placebo, FIG. 6), the “Expanded Disability Status Scale (EDSS)” value is on record as “an improvement viz placebo which becomes statistically-significant by nine months”. The “MSIS 29 scale scores” value in data set [8] (preliminary, 2 years vs day 0, FIG. 11) was “maintain or slightly improve their scores”. Also, the “MSIS 29 scale” value in data set [8] (treatment group (a), after 2 years, from 80 at day 0, FIG. 11) is on record as 90 percentage. Moreover, in data set [8] (setting [12]), the “Nine Hole Pin Test, left hand (9HPT-L), time to complete” value was “the improvement becomes statistically significant almost immediately” and the “Nine Hole Pin Test, right hand (9HPT-R), time to complete” value is on record as “improvement becomes statistically significant by twelve months of treatment”. Further, the “9-HPT (upper extremity function)” value in [8] (up to 2 year treatment, FIG. 10) was “the treated patients are more skilled and more quickly complete the task”. The “25-Feet Walk Test (25 FWT), time to complete” value in [8] (vs placebo, twelve months, preliminary data, FIG. 8) is recorded as “improvement becomes statistically significant immediately on commencement of treatment”. Further, the “reactive oxygen species, TNF-α, nitric oxide and prostaglandins E2” value in the data set on microglia is given as “reduces”. For the same compound, the “process of activation of Jurkat cell line” value in data set [9] is “decreases”. For the same compound, in the data set with dendritic cells, the “maturation of dendritic cells and capacity to present antigens to T cells” value is given as “decreases”. Besides, the tolerability and safety entry in [10] was “well tolerated and safe”.

Consider `CN(Cc1cnc2nc(N)nc(N)c2n1)c1ccc(C(=O)N[C@@H](CCC(=O)O)C(=O)O)cc1` [methotrexate, Methotrexate], for which the major side effects entry in the data set with progressive MS patients (in vivo) is “no major side effects”. Also, the “minor side effects reported” value with progressive MS patients (placebo 89.7%) is recorded as 87.1%. Besides, in the data set with progressive MS patients (vs placebo), the “sustained EDSS progression and number of relapses” value is “non-significant reduction”; the “time to first relapse” value is “no difference in time to first relapse”. Also, the “slowing down / reduction” value in the data set with SP & PPMS forms was “do not show a reduction in the progression of disability”.
